Key:
[1] = tested on: gastric injuries induced by acidic alcohol; test: Assay of gastric injuries induced by acidic alcohol; format: in vivo; conditions: female rats; for ED50: Rattus norvegicus, po, pretreatment 30 min, length of haemorrhagic lesions
Description: 1) Assay of gastric injuries induced by acidic alcohol
Female rats weighing about 120 to 150 g fasted for 24 hours were used in this test. Test compounds suspended with Tween 80 were given orally to the animals through an intragastric tube. After a certain period (pretreatmenttime) acidic alcohol was given through the intragastric tube at a dose or 0.5 ml per 100 g of body weight. The animals were sacrificed after 1 hour, their stomachs were removed and incised along the great curve. The length of the reddish-brown strips (haemorrhagic lesions) was measured and the mean total length per stomach was calculated. The biological activity of the test compounds was given and compared to that of the control group. the results are shown in Tables 1 and 2 below.

gastric acid secretion = test: Assay of the inhibition of gastric acid secretion by using pylorus ligature; format: in vivo; conditions: female Wistar rats, 4 hours
Description: 2) Assay of the inhibition of gastric acid secretion by using pylorus ligature
[Shay et al., Gastroenterology, 5, 43-61 (1945)]
Before ligating the pylorus, the test compounds suspended with Tween were given orally at a volume of 0.5 ml per […] of body weight to female Wistar rats fasted previously for 20 hours. The animals were sacrificed 4 hours after the operation, and the amount of the acid in the stomach was measured by titration with 0.01N sodium hydroxide solution in the presence of phenolphthalein indicator. The pH value of the content of the stomach was measured by using a pH-meter (Radelkis, Type OP-211/1).

| Structure (SMILES) | ED50 [1] | % Inhibition in the amount of the acid at a dose of 25 mg/kg p.o. (pretreatment: 30 min) (gastric acid secretion) | % Inhibition at a dose of 10 mg/kg p.o. (pretreatment: 30 min) [1] |
| --- | --- | --- | --- |
| CCOC(=O)CNC(=O)/C=C/S(=O)(=O)c1ccccc1 [H, Ethyl N-[3-phenylsulfonyl-2(E)-propenoyl]glycinate] | 1.6 mg/kg | 30% | – |
| COC(=O)[C@@H]1CSCN1C(=O)/C=C\Sc1ccccc1 [J, Methyl N-[3-phenylthio-2(Z)-propenoyl]-(R)-thiazolidine-4-carboxylate] | – | – | 20% |
| CCOC(=O)C[C@H](NC(=O)/C=C/Sc1ccccc1)C(=O)OCC [F, Diethyl N-[3-phenylthio-2(E)-propenoyl]-(S)-aspartate] | – | 20% | 20% |
| COC(=O)[C@H](CCSC)NC(=O)/C=C/S(=O)(=O)c1ccccc1 [D, Methyl 2(S)-[3-phenylsulfonyl-2(E)-propenoylamino]-4-methylthiobutyrate] | 3.5 mg/kg | – | – |
| CCOC(=O)C[C@@H](NC(=O)/C=C/S(=O)(=O)c1ccccc1)C(=O)OCC [B, Diethyl N-[3-phenylsulfonyl-2(E)-propenoyl]-(R)-aspartate] | 3.5 mg/kg | – | – |
| NC(=O)[C@@H]1CCCN1C(=O)/C=C/S(=O)(=O)c1ccccc1 [G, 1-[3-Phenylsulfonyl-2(E)-propenoyl]-2(S)-carbamoylpyrrolidine] | 4.5 mg/kg | 30% | – |
| CCOC(=O)C[C@@H](NC(=O)/C=C/Sc1ccccc1)C(=O)OCC [E, Diethyl N-[3-phenylthio-2(E)-propenoyl]-(R)-aspartate] | – | 20% | 20% |
| O=C(/C=C/S(=O)(=O)c1ccccc1)N1CCN(c2ccccc2)CC1 [C, 1-[3-Phenylsulfonyl-2(E)-propenoyl]-4-phenyl-piperazine] | – | 20% | – |
| O=C(O)C[C@@H](NC(=O)/C=C/S(=O)(=O)c1ccccc1)C(=O)O [K, Magnesium N-[3-phenylsulfonyl-2(E)-propenoyl]-(R)aspartate.4H2 O] | – | 30% | – |
| CCOC(=O)C[C@@H](NC(=O)/C=C/[S+]([O-])c1ccccc1)C(=O)OCC (stereo partly drawn) [A, Diethyl N-[3-phenylsulfinyl-2(E)-propenoyl]-(R)-aspartate] | 2.1 mg/kg | 30% | – |
| CCOC(=O)[C@H](C)NC(=O)/C=C/S(=O)(=O)c1ccccc1 [I, Ethyl N-[3-phenylsulfonyl-2(E)-propenoyl]-(S)alanate] | 2.2 mg/kg | 20% | – |
